Results reported in the supplement of paper PMC13380429.

Legend:
[1] = tested on: A549-ACE2 infected with SARS-CoV-2; test: morphology score (similarity to uninfected cells); higher = more like uninfected cells; conditions: 24 h
[2] = tested on: A549-ACE2 infected with SARS-CoV-2; test: SARS-CoV-2 infection rate relative to DMSO; higher = more infection; conditions: 24 h
U2OS [3] = test: cell viability relative to DMSO; higher = less toxic; conditions: 72 h
Calu-3 [4] = test: as above; conditions: 72 h
Vero E6 [5] = test: as above; conditions: 72 h
Caco-2 [6] = test: as above; conditions: 72 h
HepG2 [7] = test: as above; conditions: 72 h
A549-ACE2 [8] = test: drug-induced phospholipidosis relative to tamoxifen; higher = more phospholipidosis
U2OS [9] = test: drug sensitivity score (DSS) for viability; higher = more toxic; extreme values may be limits of the assay; conditions: 72 h
Calu-3 [10] = test: as above; conditions: 72 h
Vero E6 [11] = test: as above; conditions: 72 h
Caco-2 [12] = test: as above; conditions: 72 h
HepG2 [13] = test: as above; conditions: 72 h
U2OS [14] = test: relative viability EC50 (midpoint between 100% and the lowest measured viability); higher = less toxic; conditions: 72 h
Vero E6 [15] = test: as above; conditions: 72 h
Caco-2 [16] = test: as above; conditions: 72 h
HepG2 [17] = test: as above; conditions: 72 h
[18] = tested on: A549-ACE2 infected with SARS-CoV-2; test: cell count relative to DMSO; higher = less toxic; conditions: 24 h
Calu-3 [19] = test: relative viability EC50 (midpoint between 100% and the lowest measured viability); higher = less toxic; conditions: 72 h
A549-ACE2 [20] = test: phospholipidosis EC50; higher = less potent phospholipidosis inducer

c1cnc2c([O][Ga]([O]c3cccc4cccnc34)[O]c3cccc4cccnc34)cccc2c1 [gallium-triquinolin-8-olate]
Conditions	SARS-CoV-2 infection rate, [2] [%]	cell count, [18] [%]	cell viability, Caco-2 [6] [%]	cell viability, Calu-3 [4] [%]	cell viability, HepG2 [7] [%]	cell viability, U2OS [3] [%]	cell viability, Vero E6 [5] [%]	morphology score, [1]
1 nM	–	–	94.3	95.9	96.5	97	116	–
10 nM	–	–	104	111	102	105	103	–
100 nM	–	–	89.1	97.6	118	100	106	–
0.3 µM	98	103	–	–	–	–	–	0.25
1000 nM	–	–	116	110	97.1	102	102	–
3 µM	50	73	–	–	–	–	–	0.64
10 µM	23	69	–	–	–	–	–	0.75
10000 nM	–	–	6.6	51.7	2.2	19.7	87.7	–
30 µM	23	35	–	–	–	–	–	0.35

drug-induced phospholipidosis [%], A549-ACE2 [8]
Conditions	0.3 µM	0.833333 µM	3.33333 µM
24 h	3.04	1.03	-5.09
48 h	1.4	-0.94	–
72 h	3.03	0.0941	–

Conditions	drug sensitivity score	relative viability EC50 [µM]
Caco-2 [12]	4.3	–
Caco-2 [16]	–	3.85
Calu-3 [10]	2	–
HepG2 [13]	5.8	–
HepG2 [17]	–	2.96
U2OS [9]	4.2	–
U2OS [14]	–	3.34
Vero E6 [11]	0	–
Vero E6 [15]	–	> 10

COC(=O)C[C@](O)(CCC(C)(C)O)C(=O)O[C@@H]1C(OC)=C[C@]23CCCN2CCc2cc4c(cc2[C@H]13)OCO4 [harringtonine]
Conditions	SARS-CoV-2 infection rate, [2] [%]	cell count, [18] [%]	cell viability, Caco-2 [6] [%]	cell viability, Calu-3 [4] [%]	cell viability, HepG2 [7] [%]	cell viability, U2OS [3] [%]	cell viability, Vero E6 [5] [%]	morphology score, [1]
1 nM	–	–	108	93.2	103	95.9	105	–
10 nM	–	–	94.6	98.7	108	99.2	100	–
100 nM	–	–	73.5	81	45.7	46.8	109	–
0.3 µM	5	92	–	–	–	–	–	0.57
1000 nM	–	–	56.3	34.9	11.1	11	34.2	–
3 µM	21	62	–	–	–	–	–	0.26
10 µM	12	50	–	–	–	–	–	0.27
10000 nM	–	–	53.6	24.9	0.3	0.9	9.1	–
30 µM	33	37	–	–	–	–	–	0.29

A549-ACE2 [8], 24 h
Conditions	drug-induced phospholipidosis [%]
0.3 µM	0.19
0.833333 µM	-6.78

Conditions	drug sensitivity score	relative viability EC50 [µM]
Caco-2 [12]	11.3	–
Calu-3 [10]	14.3	–
Calu-3 [19]	–	0.233
HepG2 [13]	24.5	–
HepG2 [17]	–	0.0934
U2OS [9]	23.5	–
U2OS [14]	–	0.0946
Vero E6 [11]	12.6	–
Vero E6 [15]	–	0.686

CN1CCCC(CN2c3ccccc3Sc3ccccc32)C1 (stereo not drawn) [mepazine]
Conditions	SARS-CoV-2 infection rate [%]	cell count [%]	cell viability [%]	morphology score	phospholipidosis EC50 [µM]
A549-ACE2 [20], 24 h	–	–	–	–	3.88
A549-ACE2 [20], 48 h	–	–	–	–	6.39
A549-ACE2 [20], 72 h	–	–	–	–	9.51
Caco-2 [6], 1 nM	–	–	94.1	–	–
Caco-2 [6], 10 nM	–	–	98.3	–	–
Caco-2 [6], 100 nM	–	–	98.2	–	–
Caco-2 [6], 1000 nM	–	–	101	–	–
Caco-2 [6], 10000 nM	–	–	85.7	–	–
Calu-3 [4], 1 nM	–	–	106	–	–
Calu-3 [4], 10 nM	–	–	99.2	–	–
Calu-3 [4], 100 nM	–	–	99.3	–	–
Calu-3 [4], 1000 nM	–	–	99.5	–	–
Calu-3 [4], 10000 nM	–	–	72.8	–	–
HepG2 [7], 1 nM	–	–	98.3	–	–
HepG2 [7], 10 nM	–	–	102	–	–
HepG2 [7], 100 nM	–	–	100	–	–
HepG2 [7], 1000 nM	–	–	87.9	–	–
HepG2 [7], 10000 nM	–	–	84.8	–	–
U2OS [3], 1 nM	–	–	99.1	–	–
U2OS [3], 10 nM	–	–	98.6	–	–
U2OS [3], 100 nM	–	–	98.6	–	–
U2OS [3], 1000 nM	–	–	100	–	–
U2OS [3], 10000 nM	–	–	91.4	–	–
Vero E6 [5], 1 nM	–	–	101	–	–
Vero E6 [5], 10 nM	–	–	101	–	–
Vero E6 [5], 100 nM	–	–	103	–	–
Vero E6 [5], 1000 nM	–	–	97.1	–	–
Vero E6 [5], 10000 nM	–	–	94.8	–	–
[1], 0.3 µM	–	–	–	0.02	–
[1], 3 µM	–	–	–	0.61	–
[1], 10 µM	–	–	–	0.86	–
[1], 30 µM	–	–	–	0.32	–
[2], 0.3 µM	102	–	–	–	–
[2], 3 µM	59	–	–	–	–
[2], 10 µM	16	–	–	–	–
[2], 30 µM	27	–	–	–	–
[18], 0.3 µM	–	103	–	–	–
[18], 3 µM	–	112	–	–	–
[18], 10 µM	–	122	–	–	–
[18], 30 µM	–	113	–	–	–

drug-induced phospholipidosis [%], A549-ACE2 [8]
Conditions	0.3 µM	0.833333 µM	3.33333 µM	6.66667 µM	10 µM	30 µM
24 h	2.48	6.78	32.9	53.3	64.8	70.3
48 h	1.98	4.75	20.8	48.9	65.8	86.6
72 h	3.11	3.43	18.8	39.1	63.9	101

Conditions	drug sensitivity score	relative viability EC50 [µM]
Caco-2 [12]	0.1	–
Caco-2 [16]	–	> 10
Calu-3 [10]	1.2	–
HepG2 [13]	1.1	–
HepG2 [17]	–	> 10
U2OS [9]	0	–
U2OS [14]	–	> 10
Vero E6 [11]	0	–
Vero E6 [15]	–	> 10

CN(C)CCc1c[nH]c2ccc(C[C@H]3COC(=O)N3)cc12 [zolmitriptan]
cell viability [%]
Conditions	Caco-2 [6]	Calu-3 [4]	HepG2 [7]	U2OS [3]	Vero E6 [5]
1 nM	96.9	92.2	112	99	108
10 nM	102	94.2	111	99.7	98.3
100 nM	96.8	95.2	99	96.8	106
1000 nM	110	93.2	87.6	103	106
10000 nM	97.8	97	111	96.9	104

Conditions	drug sensitivity score	relative viability EC50 [µM]
Caco-2 [12]	0	–
Caco-2 [16]	–	> 10
Calu-3 [10]	0	–
Calu-3 [19]	–	> 10
HepG2 [13]	0	–
HepG2 [17]	–	> 10
U2OS [9]	0	–
U2OS [14]	–	> 10
Vero E6 [11]	0	–
Vero E6 [15]	–	> 10
